US20250067726A1, “METHOD FOR ANALYZING PERSONALIZED ANTI-CANCER DRUGS IN CELL CULTURES” (PreComb Therapeutics AG, priority 2022, published 2025)
Where two headings read alike, the source gives them in different places.

Key:
[1] = Pharmacokinetic parameters (t1/2, Cmax, tmax) identified for the drug panel; settings: human, in vivo; Table 1, twice the half-life, main determinant for in vitro incubation time
Excerpt: The elimination half-life or drug half-life tin generally refers to the time required for half the dose of drug administered to be removed from the body. For those drugs to be tested, where a suitable tin can not be taken from the literature, and/or for the purpose of grouping or forming panels of drugs, tin values may be determined as follows.
In accordance with the existing guidelines, the rate (Cmax, tmax) and extent (AUC) of absorption of drug from a test formulation (vs. reference formulation) is evaluated using a single dose study in healthy volunteer subjects, followed by measuring the blood/plasma concentration of the parent drug and any major active metabolites (if present) for a time period of ≥3 t½.
For a determination of the parameters, blood samples are taken at 0, 1, 2, 3, 4, 5, 6, 7, and 8 hours, optionally followed by 10 and 12, 18, 24, 30, 36, and 42 hours after administration. As a general rule, the more frequently samples around the expected time of the maximum concentration are taken, the more accurate the value of t½ (and tmax and Cmax) are. The above determinations can be made in several individuals, and median values can be determined as parameter e.g. for grouping (see below), and testing.
Grouping or pre-selection of drugs can be achieved based on one or more of the following parameters that are known to the person of skill: • i) Cmax—the value defining the maximal concentration used, • ii) t½, —time until 1/2 of the drug is cleared by the patient/cells (half-life), • iii) Duration of action [h] (length of time that particular drug is effective), • iv) Elimination time [h] (time it takes for the concentration of the drug in the plasma or the total amount in the body to be removed), • v) Area under the curve (AUC) [ng*h/ml], • vi) Clearance (CL) [L/h]

[2] = cited from earlier work; for Cmax Human: Table 2, human
[3] = test system: Panc-1 cancer cells and NIH3T3 fibroblasts microtumor; test: Redosing example: pancreatic cancer microtumor model, drug response; assay type: cell-based; settings: dosed once for 7 h or re-dosed for another 7 h with 48 h recovery in between; four independent experiments
Procedure: (§1) A pancreatic cancer microtumor model consisting of Panc-1 cancer cells and NIH3T3 fibroblasts were treated with either Gemcitabine or 5-Flurouracil. Both drugs were dosed either once for 7 hours or re-dosed for another 7 h with a 48 h recovery time in between (four independent experiments).
as §1, with “(GEM) and/or 5-Flurouracil (5-FU).” for “or 5-Flurouracil.”

## Nc1nc2[nH]cc(CCc3ccc(C(=O)N[C@@H](CCC(=O)O)C(=O)O)cc3)c2c(=O)[nH]1 [Pemetrexed]
[1]
  twice the half-life (2 × t1/2): 528 min
[2]; Table 1, elimination half-life
  t1/2: 4.4 h
[2]
  Cmax Human: 90 to 150 µg/mL
[2]; Table 2
  t1/2: 4.4 h

## O=C1[O][Pt]2([NH][C@@H]3CCCC[C@H]3[NH]2)[O]C1=O [Oxaliplatin]
[2]
  Cmax Human: 1.2 µg/mL
[2]; Table 2
  t1/2: 1.86 h

## O=C(c1cc(Cc2n[nH]c(=O)c3ccccc23)ccc1F)N1CCN(C(=O)C2CC2)CC1 [Olaparib]
[1]
  twice the half-life (2 × t1/2): 1430 min
[2]; Table 1, elimination half-life
  t1/2: 11.9 h
[2]
  Cmax Human: 5.8 µg/mL
[2]; Table 2
  t1/2: 11.9 h
  tmax: 1.3 h

## Nc1ccn([C@@H]2O[C@H](CO)[C@@H](O)C2(F)F)c(=O)n1 [Gemcitabine]
[1]
  twice the half-life (2 × t1/2): 27.6 min
[2]; Table 1, elimination half-life
  t1/2: 0.23 h
[2]
  Cmax Human: 18.5 µg/mL
[2]; Table 2
  t1/2: 0.23 h
[3]
  Efficiency on redosing versus single dosing: increased efficiency

## CC(=O)Nc1cccc(-n2c(=O)n(C3CC3)c(=O)c3c(Nc4ccc(I)cc4F)n(C)c(=O)c(C)c32)c1 [Trametinib]
[1]
  twice the half-life (2 × t1/2): 576 min
[2]; Table 1, elimination half-life
  t1/2: 4.8 h
[2]
  Cmax Human: 0.022 µg/mL
[2]; Table 2
  t1/2: 4.35 h

## O=c1[nH]cc(F)c(=O)[nH]1 [Fluorouracil]
[1]
  twice the half-life (2 × t1/2): 36 min
[2]; Table 1, elimination half-life
  t1/2: 0.3 h
[3]
  Efficiency on redosing versus single dosing: did not improve

## CC(=O)O[C@@]12CO[C@@H]1C[C@H](O)[C@@]1(C)C(=O)[C@H](O)C3=C(C)[C@@H](OC(=O)[C@H](O)[C@@H](NC(=O)OC(C)(C)C)c4ccccc4)C[C@@](O)([C@@H](OC(=O)c4ccccc4)[C@H]21)C3(C)C [Docetaxel]
[1]
  twice the half-life (2 × t1/2): 4920 min
[2]; Table 1, elimination half-life
  t1/2: 41 h
[2]
  Cmax Human: 1.5 to 2.5 µg/mL
[2]; Table 2
  t1/2: 41 h

## C#Cc1cccc(Nc2ncnc3cc(OCCOC)c(OCCOC)cc23)c1 [Erlotinib]
[1]
  twice the half-life (2 × t1/2): 2930 min
[2]
  Cmax Human: 2.3 µg/mL
[2]; Table 2
  tmax: 5.5 h
